We go through 25 compounds from US9586959B2, “Substituted tricyclic heterocycles as histamine 4 receptor inhibitors” (C&C RESEARCH LABORATORIES, priority 2011, dated 2017).

For series [1], the target named is human histamine 4 receptor (hH4R) (Homo sapiens (Human), UniProt Q9H3N8). In words: Binding affinity of human histamine 4 receptor (hH4R), [3H] labeled histamine displacement. The conditions noted are these: hH4R-overexpressed cell membrane, [3H] histamine. On the procedure: 20 μL of the prepared compound solution was transferred to each well of a 96-well plate, and then 20 μL of 100 μM histamine diluted with analysis buffer solution and 1% DMSO were transferred to each well to calculate non-specific binding and total binding degree. 25 μg of human histamine 4 receptor-overexpressed cell membrane (PerkinElmer) was diluted into 160 μL of analysis buffer solution and that was transferred to each well. [^3H] labeled histamine (PerkinElmer) was diluted into 1 μM concentration, 20 μL was allocated in each well, and then it was kept in a 27° C. incubator for 30 minutes. After the reaction, 200 μL of the mixture was transferred to a glass fiber plate in which 0.5% polyethylene amine was presoaked, and then non-binding [^3H] labeled histamine was removed in vacuum. After 4 times washing with 200 μL of washing buffer solution (50 mM tris-HCl, pH 7.4), the plate was dried in a 37° C. oven for 18 hours. 100 μL of betascint cocktail solution was added to each well, and after 1 hour CPM (count per minute) value of [^3H] labeled histamine was measured by using Wallac beta-counter TriLux.
human histamine 4 receptor (hH4R), sequence (Q9H3N8 whole entry): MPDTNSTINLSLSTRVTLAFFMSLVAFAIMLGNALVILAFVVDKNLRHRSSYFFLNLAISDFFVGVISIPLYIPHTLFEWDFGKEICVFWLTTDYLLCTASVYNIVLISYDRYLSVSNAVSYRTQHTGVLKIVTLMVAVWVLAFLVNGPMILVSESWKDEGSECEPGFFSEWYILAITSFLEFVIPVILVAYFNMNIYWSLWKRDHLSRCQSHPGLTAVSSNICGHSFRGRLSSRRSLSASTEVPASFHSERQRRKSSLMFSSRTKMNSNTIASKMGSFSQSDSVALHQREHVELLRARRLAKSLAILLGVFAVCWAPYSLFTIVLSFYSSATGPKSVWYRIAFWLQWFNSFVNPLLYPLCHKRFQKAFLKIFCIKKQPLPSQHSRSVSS

The nature of series [2]: Solubility in artificial gastrointestinal tract solution. The format is physicochemical. The conditions noted are these: artificial gastrointestinal tract solution, thermodynamic from solid; for solubility at 1 h: fassgf or other biorelevant, first solution pH 1.2, 2 mg/mL sample, 37° C. 1 hour; for solubility at 2 h: fassif, second solution pH 6.5, 2 mg/mL sample, 37° C. 2 hours. On the procedure:
2.0 g of sodium chloride was added in 7.0 mL of 37% of hydrochloric acid and water to make the total volume of 1 L. The pH was adjusted to exactly 1.2 with 1N sodium hydroxide or 1N hydrochloric acid. A small amount (20 mL) of this solution was taken and added in 25 μL of triton X-100 to make the total volume of 25 mL.
0.348 g sodium hydroxide, 3.438 g NaH2PO4, 6.186 g sodium chloride and water were added to make the total volume of 1 L. The pH was adjusted to exactly 6.5 with 1N sodium hydroxide or 1N hydrochloric acid. A small amount (20 mL) of this solution was taken and 41.25 mg of sodium taurocholate hydrate and 25 μL of 750 mM lecithin dissolved in ethanol was added to make the total volume of 25 mL.
The heated test sample solutions were filtered to remove undissolved compounds therein. Finally, 100 μL of the completely compound-dissolved solution was sampled and 100 μL of CH3CN was added thereto to make the test sample solution. For each analysis of the test sample solution, the solubility was measured by using liquid chromatography.

Series [3] has as its target human histamine 3 receptor (hH3R) (Homo sapiens (Human), UniProt Q9Y5N1). The series can be described thus: Binding affinity of human histamine 3 receptor (hH3R), [3H] labeled N-α-methylhistamine displacement. The conditions noted are these: hH3R-overexpressed cell membrane, [3H] N-α-methylhistamine. On the procedure:
10 μL of the prepared compound solution was allocated in each well of a 96-well plate, and then 10 μL of 200 μM (R)(−)-α-methylhistamine (RaMH) diluted with analysis buffer and 1% of DMSO were transferred to each well to calculate non-specific binding and total binding degree. 15 μg of human histamine 3 receptor-overexpressed cell membrane (PerkinElmer) was diluted with 180 μL of analysis buffer solution (50 mM tris-HCl pH 7.4, 5 mM MgCl2), and that was transferred to each well. [^3H] labeled Na-methylhistamine (PerkinElmer) was diluted into […], 10 μL of that was added to each well, and then it was kept in a 27° C. incubator for 30 minutes. After the reaction, 200 μL of the mixture was transferred to a glass fiber plate in which 0.5% polyethylene amine was presoaked, and then non-binding [^3H] labeled Na-methylhistamine was removed in vacuum. After 5 times washing with 200 μL of washing buffer solution (50 mM tris-HCl, pH 7.4), the plate was dried in a 37° C. oven for 18 hours. 100 μL of betascint cocktail solution was added to each well, and after 1 hour CPM of [^3H] labeled N-α-methylhistamine was measured by using Wallac beta-counter TriLux. The binding affinity (IC50) of the human histamine 3 receptor for the present invention was analyzed by an Excel program, and the results of analysis are shown in Table 2.

In brackets after ≈: the same amount, converted by molar mass.

human histamine 3 receptor (hH3R), sequence (Q9Y5N1 whole entry): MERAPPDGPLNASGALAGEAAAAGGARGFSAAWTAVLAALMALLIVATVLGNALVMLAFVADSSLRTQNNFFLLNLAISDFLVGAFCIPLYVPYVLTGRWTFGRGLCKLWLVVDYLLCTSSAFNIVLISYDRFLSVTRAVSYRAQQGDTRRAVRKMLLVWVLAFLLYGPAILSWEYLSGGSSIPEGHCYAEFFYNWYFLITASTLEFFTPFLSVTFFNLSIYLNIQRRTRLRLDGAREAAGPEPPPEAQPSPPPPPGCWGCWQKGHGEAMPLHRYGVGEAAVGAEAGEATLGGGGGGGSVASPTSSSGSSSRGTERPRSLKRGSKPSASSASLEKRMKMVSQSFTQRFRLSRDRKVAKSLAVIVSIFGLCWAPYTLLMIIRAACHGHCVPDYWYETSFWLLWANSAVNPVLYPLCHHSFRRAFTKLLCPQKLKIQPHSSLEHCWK

As for `CN1CCN(c2nc3ncc(Cl)cc3c3ncnn23)CC1` [Compound 35, 9-Chloro-5-(4-methylpiperazin-1-yl)pyrido[3,2-e][1,2,4]triazolo[1,5-c]pyrimidine], in series [1], the IC50 – broadly, the concentration that gives 50% inhibition – was determined as 170 nM.
`Cc1c(Br)cnc2nc(N3CCN(C)CC3)c3nncn3c12` [Compound 66, 8-Bromo-9-methyl-4-(4-methylpiperazin-1-yl)pyrido[2,3-e][1,2,4]triazolo[4,3-a]pyrazine] came in with an IC50 in series [1] of 300 nM.
On to `CN1CCN(c2nc3ncc(Cl)cc3n3ccnc23)CC1` [Compound 46, 8-Chloro-4-(4-methylpiperazin-1-yl)imidazo[1,2-a]pyrido[2,3-e]pyrazine], for which, in series [1], the concentration for half-maximal inhibition (IC50) was 154 nM. In series [2], the solubility (in general, how much of the substance goes into solution per volume) at 1 h turned out to be 1910 µg/mL (≈ 6.32 mM) and the solubility at 2 h worked out at 1100 µg/mL (≈ 3.64 mM).
As for `CN1CCN(c2nc3ncc(Cl)cc3c3cn(C)nc23)CC1` [Compound 43, 8-Chloro-2-methyl-4-(4-methylpiperazin-1-yl)-2H-pyrazolo[3,4-c][1,8]naphthylidine], the IC50 worked out at 70 nM in series [1] and 97000 nM in series [3].
For `CNC1CN(c2nc3ncc(Cl)c(Cl)c3n3cnnc23)C1` [Compound 67, 1-(8,9-Dichloropyrido[2,3-e][1,2,4]triazolo[4,3-a]pyrazin-4-yl)-N-methylazetidin-3-amine] the same measures were 314 nM and > 100000 nM.
As to `CN1CCN(c2nc3ncc(Cl)cc3n3nnnc23)CC1` [Compound 94, 8-Chloro-4-(4-methylpiperazin-1-yl)pyrido[2,3-e]tetrazolo[1,5-a]pyrazine], in series [1], the half-maximal inhibitory concentration (IC50) is 62 nM.
On to `CNC1CN(c2nc3ncc(C(F)F)cc3n3cnnc23)C1` [Compound 51, 1-(8-(Difluoromethyl)pyrido[2,3-e][1,2,4]triazolo[4,3-a]pyrazin-4-yl)-N-methylazetidin-3-amine], for which the IC50 in series [1] was 710 nM; in series [3], > 100000 nM.
In series [1], `Brc1cnc2nc(N3CCN4CCCC4C3)c3nncn3c2c1` (stereo not drawn) [Compound 74, 8-Bromo-4-(hexahydropyrrolo[1,2-a]pyrazin-2(1H)-yl)pyrido[2,3-e][1,2,4]triazolo[4,3-a]pyrazine] yielded an IC50 of 60 nM. In series [2], this compound gave a solubility at 1 h of 1530 µg/mL (≈ 4.08 mM) and a solubility at 2 h of 646 µg/mL (≈ 1.73 mM).
As for `CCOc1nc2nc(N3CCNCC3)c3nncn3c2cc1Cl` [Compound 63, 8-Chloro-7-ethoxy-4-(piperazin-1-yl)pyrido[2,3-e][1,2,4]triazolo[4,3-a]pyrazine], the IC50 was 580 nM in series [1] and > 100000 nM in series [3].
Taken in the same sequence, the figures for `CNC1CN(c2nc3cnc(Cl)cc3n3cnnc23)C1` [Compound 117, 1-(8-chloropyrido[3,4-e][1,2,4]triazolo[4,3-a]pyrazin-4-yl)-N-methylazetidin-3-amine] were 210 nM and > 100000 nM.
`CNC1CN(c2nc3ccc(Cl)nc3n3cnnc23)C1` [Compound 116, 1-(2-chloropyrido[3,2-e][1,2,4]triazolo[4,3-a]pyrazin-6-yl)-N-methylazetidin-3-amine] returned a concentration for half-maximal inhibition (IC50) in series [1] of 240 nM. Further, in series [3], the IC50 is > 100000 nM. In series [2], this compound showed a solubility at 1 h of 1940 µg/mL (≈ 6.7 mM) and a solubility at 2 h of 960 µg/mL (≈ 3.31 mM).
Turning to `CNC1CN(c2nc3nc(C#N)c(Cl)cc3n3cnnc23)C1` [Compound 28, 8-Chloro-4-(3-(methylamino)azetidin-1-yl)pyrido[2,3-e][1,2,4]triazolo[4,3-a]pyrazin-7-carbonitrile], the IC50 in series [1] was 490 nM; in series [3], > 100000 nM.
In the case of `CN1CCN(c2nc3ncc(I)cc3n3cnnc23)CC1` [Compound 49, 8-Iodo-4-(4-methylpiperazin-1-yl)pyrido[2,3-e][1,2,4]triazolo[4,3-a]pyrazine], the half-inhibitory concentration (IC50) is 34 nM in series [1] and > 100000 nM in series [3].
As to `C=Cc1cnc2nc(N3CC(NC)C3)c3nncn3c2c1` [Compound 55, N-Methyl-1-(8-vinylpyrido[2,3-e][1,2,4]triazolo[4,3-a]pyrazin-4-yl)azetidin-3-amine], the 50% inhibitory concentration (IC50) was 260 nM in series [1] and > 100000 nM in series [3].
For `COc1nc2nc(N3CCN(C)CC3)c3nncn3c2cc1Cl` [Compound 60, 8-Chloro-7-methoxy-4-(4-methylpiperazin-1-yl)pyrido[2,3-e][1,2,4]triazolo[4,3-a]pyrazine] the same measures were 610 nM and > 100000 nM.
`Ic1cnc2nc(N3CCN4CCCC4C3)c3nncn3c2c1` (stereo not drawn) [Compound 75, 4-(Hexahydropyrrolo[1,2-a]pyrazin-2(1H)-yl)-8-iodopyrido[2,3-e][1,2,4]triazolo[4,3-a]pyrazine] gave an IC50 in series [1] of 64 nM. In series [2], this compound showed a solubility at 1 h of 2000 µg/mL (≈ 4.76 mM) and a solubility at 2 h of 723 µg/mL (≈ 1.72 mM).
With `CN1CCN(c2nc3nc(OCC(F)(F)F)c(Cl)cc3n3cnnc23)CC1` [Compound 64, 8-Chloro-4-(4-methylpiperazin-1-yl)-7-(2,2,2-trifluoroethoxy)pyrido[2,3-e][1,2,4]triazolo[4,3-a]pyrazine], the IC50 is 240 nM in series [1] and > 100000 nM in series [3].
As for `Cc1cnc2nc(N3CCN(C)CC3)c3nncn3c2c1` [Compound 2, 8-Methyl-4-(4-methylpiperazin-1-yl)pyrido[2,3-e][1,2,4]triazolo[4,3-a]pyrazine], the concentration for half-maximal inhibition (IC50) was 506 nM in series [1] and > 100000 nM in series [3].
With `CNC1CN(c2nc3ncc(Br)cc3n3cnnc23)C1.O=C(O)C(F)(F)F` [Compound 104, 1-(8-bromopyrido[2,3-e][1,2,4]triazolo[4,3-a]pyrazin-4-yl)-N-methylazetidin-3-amine 2,2,2-trifluoroacetate], the IC50 in series [1] (2,2,2-trifluoroacetate) was 30 nM; in series [3], > 100000 nM. The concentration in solution in series [2] (solubility at 1 h) was 1510 µg/mL. The compound also came in with a solubility at 2 h in series [2] of 1560 µg/mL.
For `CN1CCN(c2nc3ncc(Br)cc3n3nnnc23)CC1` [Compound 96, 8-Bromo-4-(4-methylpiperazin-1-yl)pyrido[2,3-e]tetrazolo[1,5-a]pyrazine], the IC50 in series [1] is 28 nM.
For the compound `Cc1nc2c(N3CCN(C)CC3)nc3ncc(Cl)cc3n2n1` [Compound 98, 8-Chloro-2-methyl-4-(4-methylpiperazin-1-yl)pyrido[2,3-e][1,2,4]triazolo[1,5-a]pyrazine], the half-maximal inhibitory concentration (IC50) in series [1] worked out at 11 nM. In series [2], this compound showed a solubility at 1 h of 1700 µg/mL (≈ 5.36 mM) and a solubility at 2 h of 1090 µg/mL (≈ 3.44 mM).
As to `Cc1nc2nc(N3CCN(C)CC3)c3nncn3c2cc1Br` [Compound 100, 8-bromo-7-methyl-4-(4-methylpiperazin-1-yl)pyrido[2,3-e][1,2,4]triazolo[4,3-a]pyrazine], the half-maximal inhibitory concentration (IC50) was 231 nM in series [1] and > 100000 nM in series [3].
Taken in the same sequence, the figures for `CCOc1nc2nc(N3CCN(C)CC3)c3nncn3c2cc1Cl` [Compound 23, 8-Chloro-7-ethoxy-4-(4-methylpiperazin-1-yl)pyrido[2,3-e][1,2,4]triazolo[4,3-a]pyrazine] were 140 nM and > 100000 nM.
As for `Clc1cnc2nc(N3CCNCC3)c3nccn3c2c1` [Compound 47, 8-Chloro-4-(piperazin-1-yl)imidazo[1,2-a]pyrido[2,3-e]pyrazine], the IC50 in series [1] turned out to be 618 nM.
As to `CNC1CN(c2nc3ncc(Cl)cc3c3oc(C)nc23)C1` [Compound 91, 1-(8-Chloro-2-methyloxazolo[4,5-c][1,8]naphthylidine-4-yl)-N-methylazetidin-3-amine], the IC50 in series [3] is > 100000 nM. In series [2], this compound came in with a solubility at 1 h of 1840 µg/mL (≈ 6.04 mM) and a solubility at 2 h of 1940 µg/mL (≈ 6.4 mM).
